Source: patent publication US10894035B2, “Use of indole compounds to stimulate the immune system” (priority 2015, dated 2021)
pIC50: −log10 of the molar value.

Legend:
sPLA2GIII = molecular target: T1, sPLA2GIII (Homo sapiens, UniProt Q9NZ20); test: sPLA2 specificity panel (Table 1); assay type: biochemical; conditions: panel of secreted PLA2, result in words
T1 sequence (Q9NZ20 20-509): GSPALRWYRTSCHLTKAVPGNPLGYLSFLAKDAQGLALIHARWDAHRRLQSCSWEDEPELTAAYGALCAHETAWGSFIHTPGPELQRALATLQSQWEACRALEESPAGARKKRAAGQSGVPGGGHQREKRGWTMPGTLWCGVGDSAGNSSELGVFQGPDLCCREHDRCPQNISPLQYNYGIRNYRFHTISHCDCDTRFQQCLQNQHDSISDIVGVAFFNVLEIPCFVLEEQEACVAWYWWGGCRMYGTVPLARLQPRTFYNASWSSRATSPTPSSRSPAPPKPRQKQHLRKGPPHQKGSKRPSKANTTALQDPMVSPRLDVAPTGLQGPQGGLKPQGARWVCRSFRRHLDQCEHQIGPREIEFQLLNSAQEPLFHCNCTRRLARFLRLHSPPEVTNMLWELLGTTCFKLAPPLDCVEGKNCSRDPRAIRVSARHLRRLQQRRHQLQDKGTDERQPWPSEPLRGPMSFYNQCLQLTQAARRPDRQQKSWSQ

sPLA2GIB = sPLA2GIB (Homo sapiens, UniProt P04054); test: sPLA2 specificity panel (Table 1); assay type: biochemical; conditions: panel of secreted PLA2, result in words
[1] = molecular target: T2, sPLA2G1B contained in plasma of viremic patients (Homo sapiens, UniProt P04054); test: Bioassay of IL-7-induced pSTAT5 nuclear translocation in healthy-donor CD4 T cells exposed to plasma/sera of viremic HIV-infected patients; assay type: cell-based; conditions: for reversion of inhibition of pSTAT5 nuclear translocation: 50 μM compound; for reversal of plasma/sera-induced inhibition of IL-7-induced NT pSTAT5: 50 microM compound
T2 construct: CD4 lymphocytes purified from healthy donors were exposed to sera from viremic HIV-infected patients at 3% dilution; from tissue; host or cells: plasma/sera of viremic HIV-infected patients, applied to CD4 T cells of healthy donors
Method: Five sera were tested and the results are given as the median +/−SD.
Viremic patients (VP) included in the study had been HIV-positive for more than one year. […] All blood samples from VP were drawn at Hôpital Bicêtre or Centre Hospitalier de Gonesse.
(§1) Inhibition of IL-7-induced phosphorylated STAT5 nuclear translocation (NTpSTAT) was measured as follows: VP plasma (5 or 10%) was first incubated with purified HD CD4 T cells (20 min) before stimulation by IL-7 (2 nM, 15 min.). Cells were then plated on polylysine coated glass slides before fixation by PFA (1.5%) and permeabilization by methanol (90% at −20° C.). pSTAT5 was then stained by rabbit anti-STAT5 and labeled with goat anti-rabbit-Atto642. The cells were analyzed by pulsed STED microscopy and the number of nuclei expressing pSTAT5 were counted.
We have already shown that sPLA2G1B contained in plasma of viremic patients through induction of aMMD induces a blockade of IL-7-induced nuclear translocation of phospho STAT5 (NT pSTAT5).
The effects of plasma from various HIV viremic patients (at least 5) were first titrated on the inhibition of IL-7-induced NTpSTAT5. The inhibition is measurable at 1% dilution of the plasma and the effect is maximum at 10% of the plasma. Consequently, in the experiments we used the different plasma at 3% dilution which gives between 30 to 70% of the maximum inhibition. […] The inhibition obtained with the recombinant enzyme reaches a plateau corresponding to a maximum inhibition of around 80%. By contrast, the plateau obtained when the plasma is used is around 90% inhibition, or more (compare data of FIGS. 1 and 2 with data FIG. 3).
In a further study, the plasma from 5 additional HIV-infected patients was tested. […] 100% inhibition of nuclear translocation of pSTAT5 is observed (see FIG. 4).

sPLA2GV = molecular target: T3, sPLA2GV (Homo sapiens, UniProt P39877); test: sPLA2 specificity panel (Table 1); assay type: biochemical; conditions: panel of secreted PLA2, result in words
T3 sequence (P39877 21-138): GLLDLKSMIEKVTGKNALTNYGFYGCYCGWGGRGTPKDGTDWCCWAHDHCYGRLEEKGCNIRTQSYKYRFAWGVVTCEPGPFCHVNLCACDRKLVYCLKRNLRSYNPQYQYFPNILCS
Excerpt: IC50 values for a panel of secreted Phospholipase A2 (sPLA2) are shown.

Recombinant PLA2G1B = molecular target: T4, Recombinant PLA2G1B (Homo sapiens, UniProt P04054); test: Bioassay of IL-7-induced pSTAT5 nuclear translocation in CD4 T cells exposed to recombinant PLA2G1B; assay type: cell-based
T4 construct: made in house; host or cells: E. coli (inclusion bodies, urea-solubilized, renatured, HPLC-purified)
Method: sPLA2G1B was produced in E. Coli. Inclusion bodies were solubilized in urea and afterwards renatured. sPLA2G1B was further purified by HPLC. Homogeneity of the preparations was verified by MassSpectrometry (Malditoff). The specific activity of the enzyme was always measured and compared to standard preparations.
as §1
The experiment was repeated twice. From the experimental data we derived the corresponding theoretical curve that gives the IC50.

sPLA2G1B = sPLA2G1B (Homo sapiens, UniProt P04054); test: E. coli membrane sPLA2 activity assay ([3H]oleic acid release); assay type: biochemical
Method: The activity of compounds of formula A towards sPLA2G1B can be tested and verified using the E. coli membrane assay described below:
The assay is based on the ability of E. coli membranes to incorporate exogenously added fatty acids such as oleic acid (OA). The use of radiolabelled OA allows to follow the incorporation of this fatty acid into membrane phospholipids of E. Coli and its release upon PLA2-mediated hydrolysis of these membranes. Preincubation of the samples, before the assay, with a specific inhibitor or a neutralizing specific antibody directed against the given sPLA2 can indicate which sPLA2 type is detected.
An overnight culture of E. coli was diluted 1:20 in Luria Broth (LB) medium and incubated at 37° C. for 5 h with vigorous shaking in the presence of 1 mCi/ml [3H]OA (NET 289, NEN, 5 mCi/ml). […]
The reaction was carried out in a 37° C. water bath for 30 min and stopped with stop buffer containing 0.1 M EDTA and 0.2% free-fatty acids BSA. Then the tubes were centrifuged to spin down E. Coli membranes and aliquotes of supernatants were counted to monitor the [3H]OA released from these membranes. […]
The sPLA2 activity (A) is calculated as follows: A=A1−A2/B×100. […]
A is expressed as the % hydrolysis of the total radioactivity incorporated in the E. coli membranes.

sPLA2GXIIA = molecular target: T5, sPLA2GXIIA (Homo sapiens, UniProt Q9BZM1); test: sPLA2 specificity panel (Table 1); assay type: biochemical; conditions: panel of secreted PLA2, result in words
T5 sequence (Q9BZM1 23-189): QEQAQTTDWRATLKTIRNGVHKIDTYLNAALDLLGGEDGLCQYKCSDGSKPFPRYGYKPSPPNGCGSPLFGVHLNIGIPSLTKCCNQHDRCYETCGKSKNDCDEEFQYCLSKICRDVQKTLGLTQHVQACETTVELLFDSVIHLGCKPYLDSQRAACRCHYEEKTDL

sPLA2GIIE = molecular target: T6, sPLA2GIIE (Homo sapiens, UniProt Q9NZK7); test: sPLA2 specificity panel (Table 1); assay type: biochemical; conditions: panel of secreted PLA2, result in words
T6 sequence (Q9NZK7 20-142): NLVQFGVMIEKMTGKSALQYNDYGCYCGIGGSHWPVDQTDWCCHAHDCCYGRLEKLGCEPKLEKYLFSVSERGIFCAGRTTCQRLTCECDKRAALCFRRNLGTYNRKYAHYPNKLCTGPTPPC

sPLA2GIID = molecular target: T7, sPLA2GIID (Homo sapiens, UniProt Q9UNK4); test: sPLA2 specificity panel (Table 1); assay type: biochemical; conditions: panel of secreted PLA2, result in words
T7 sequence (Q9UNK4 21-145): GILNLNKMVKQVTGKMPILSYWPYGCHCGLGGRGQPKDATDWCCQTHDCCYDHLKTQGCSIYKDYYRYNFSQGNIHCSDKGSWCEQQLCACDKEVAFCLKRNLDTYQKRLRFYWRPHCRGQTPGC

[2] = recombinant PLA2G1B 75 nanoM, pre-exposed 30 mn to compound, FIG. 1

T4 sequence (P04054 23-148): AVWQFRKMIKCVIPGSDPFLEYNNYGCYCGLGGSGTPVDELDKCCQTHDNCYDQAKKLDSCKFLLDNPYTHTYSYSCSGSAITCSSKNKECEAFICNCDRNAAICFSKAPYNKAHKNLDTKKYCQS
T2 sequence (P04054 23-148): as above
Sequence of sPLA2G1B (P04054 23-148): as above
Sequence of sPLA2GIB (P04054 23-148): as above

## CCc1c(C(=O)C(N)=O)c2c(OCC(=O)O)cccc2n1Cc1ccccc1 [Compound B]
sPLA2GIII
  recognition/binding/activity towards sPLA2GIII (group III PLA2): does not recognize or bind
sPLA2GIII; listed as compound B
  recognition/binding/activity towards sPLA2GIII (group III PLA2): no activity
sPLA2GIB
  IC50 sPLA2GIB: significant IC50
[1]; 1% plasma, FIG. 4
  reversion of inhibition of pSTAT5 nuclear translocation: the reversion is complete
[1]; 3% plasma, FIG. 4
  reversion of inhibition of pSTAT5 nuclear translocation: about 90%
[1]; sera at 1% or 3% dilution, 5 additional patients, FIG. 4
  reversal of plasma/sera-induced inhibition of IL-7-induced NT pSTAT5: completely reverse this inhibition
[1]; sera at 1% or 3% dilution, 5 additional patients, FIG. 4, listed as compound B
  reversal of plasma/sera-induced inhibition of IL-7-induced NT pSTAT5: totally reversed this inhibition
[1]; sera at 3% dilution, five sera, FIG. 3
  reversal of plasma/sera-induced inhibition of IL-7-induced NT pSTAT5: revert the inhibitory activity of the plasma
[1]; sera at 3% dilution, five sera, FIG. 3, listed as compound B
  reversal of plasma/sera-induced inhibition of IL-7-induced NT pSTAT5: totally reversed this inhibition
[1]; plasma of viremic patients
  plateau inhibition when plasma is used: ≥ 90%
sPLA2GV
  IC50 sPLA2GV: significant IC50
Recombinant PLA2G1B
  pIC50: 5.22
Recombinant PLA2G1B; [2]
  concentration at which inhibitory effects are maximum: 8 µM
  concentration at which inhibitory effects begin: 5 µM
Recombinant PLA2G1B; recombinant enzyme in serum free buffer
  plateau, maximum inhibition: around 80%
sPLA2G1B
  inhibitory effect on sPLA2G1B activity: particularly strong inhibitory effect
sPLA2GXIIA
  recognition/binding of sPLA2GXIIA: does not recognize or bind
sPLA2GIIE
  IC50 sPLA2GIIE: significant IC50
sPLA2GIID
  IC50 sPLA2GIID: significant IC50
